{"source": "patent US5998366A", "about": "“Method for ameliorating glutamic acid decarboxylase associated autoimmune disorders” (The Regents of the University of California, priority 1997, dated 1999)", "molecules": {"B1": {"name": "segment C: human GAD65 amino acid residues 398-585, translated in vitro, 35S labeled (protein, UniProt Q05329 398-585, looked up, fragment)", "chain": "MGVPLQCSALLVREEGLMQNCNQMHASYLFQQDKHYDLSYDTGDKALQCGRHVDVFKLWLMWRAKGTTGFEAHVDKCLELAEYLYNIIKNREGYEMVFDGKPQHTNVCFWYIPPSLRTLEDNEERMSRLSKVAPVIKARMMEYGTTMVSYQPLGDKVNFFRMVISNPAATHQDIDFLIEEIERLGQDL", "modifications": "35S label", "notes": "human GAD65 amino acid residues 398-585, translated in vitro, 35S labeled"}, "B2": {"name": "segment A: human GAD65 amino acid residues 1-224, translated in vitro, 35S labeled (protein, UniProt Q05329 1-224, looked up, fragment)", "chain": "MASPGSGFWSFGSEDGSGDSENPGTARAWCQVAQKFTGGIGNKLCALLYGDAEKPAESGGSQPPRAAARKAACACDQKPCSCSKVDVNYAFLHATDLLPACDGERPTLAFLQDVMNILLQYVVKSFDRSTKVIDFHYPNELLQEYNWELADQPQNLEEILMHCQTTLKYAIKTGHPRYFNQLSTGLDMVGLAADWLTSTANTNMFTYEIAPVFVLLEYVTLKKM", "modifications": "35S label", "notes": "human GAD65 amino acid residues 1-224, translated in vitro, 35S labeled"}}, "key": {"[1]": {"system": "IDDM autoantibodies in sera of human patients", "assay": "Immunoprecipitation of 35S-labeled GAD65 segments by IDDM patient sera", "format": "binding", "conditions": "22 IDDM patient sera, 30 μl serum", "from_the_text": "Portions of human GAD65 cDNA were amplified by the polymerase chain reaction (PCR; Saiki, et al., Science, 239:487, 1988) to produce DNA segments encoding three polypeptide segments: amino acid residues 1-224 (segment A); 224-398 (segment B); and 398-585 (segment C). Each construct also contained a T7 promoter, a consensus sequence for the initiation of translation and an initiating methionine codon (Korak, M., J. Cell Biol., 108:229, 1989). Each PCR product was then trascribed in vitro with T7 RNA polymerase and translated in vitro in a rabbit reticulocyte cell-free system in the presence of ^35 S-methionine, using conditions recommended by the supplier (Amersham Corp., Arlington Heights, Ill.). Each test serum (30 μl) was incubated with the resulting ^35 S labeled-polypeptides. The bound peptides were isolated with PAS and analyzed by SDS-PAGE in 12% polyaacrylamide and autoradiography."}, "female NOD mice [2]": {"system": "female NOD mice", "assay": "GAD immunization of 8 week old NOD mice, onset of IDDM", "format": "in vivo", "conditions": "again every 6 weeks", "from_the_text": "An IPTG inducible T7 expression vector was used to express both human GAD65 and E. coli b galactosidase (β-gal). In IPTG induced recombinant E. coli, GAD and β-gal constitute about 10-20% of the total bacterial protein. However, almost all of the GAD was in inclusion bodies, which could be isolated and extensively washed to obtain material that is about 80% GAD. We then did affinity purifications of GAD and β-gal on the basis of a hexa-histidine \"tag\" which was attached to GAD during the subcloning process. These extra histidine residues allow the rapid affinity purification (Novagen) of GAD by metal affinity chromatography (Hochuli, et al., Bio Technology, 6:1321-1325, 1988). The inclusion body material is solubilized in 6M guanidine hydrochloride (GHCL), 10 mm β-mercaptoethanol and 1% triton X-100. After binding to the column, the column was extensively washed with GHCL and 8M urea in phosphate buffers. Only the central peak GAD fraction was utilized for subsequent studies. Human GAD65 shares 96% amino acid sequence identity with murine GAD65, with most of the amino acid differences being conservative substitutions.\nBreeder mice were purchased from Taconic Farms and housed under specific pathogen-free conditions. Only female NOD mice were used in this study. The average age of IDDM onset in unrelated females in the colony was 22 weeks. Insulitis is generally observed beginning at 4 weeks of age. T cell responses to GAD, HSP, CPH were found by 6 weeks in age. The incidence of IDDM in female mice is 70-90% by one year of age.\nAt 8 weeks of age, 25 ug GAD or control β-gal. was injected intraperftoneally (ip) in 100 ul of incomplete Freunds adjuvant (IFA). Because there may be a requirement for continual antigen presentation (Ramsdell, et al., Science, 257:1130-1133, 1992) mice were treated again every 6 weeks. Urine glucose levels were monitored twice weekly. After observing above normal glucose in urea, blood glucose levels were monitored twice weekly. Two consecutive blood glucose level readings of […] was considered as IDDM onset, after which the mice were sacrificed and spleen cells were tested as described above in Example 6 for evidence of spleen cell proliferation."}, "female NOD mice [3]": {"system": "female NOD mice", "assay": "Insulitis score after tolerance induction", "format": "in vivo", "conditions": "Table 8A: i.v. injection at 3 weeks of age in PBS, examined at 12 weeks; scale 0-4; mean ± SE", "description": "1. In these experiments female NOD mice were intravenously injected at 3 weeks of age with 50 μg GAD, μ-galactosidase, mycobacterial hsp65 (m-hsp) or 0.1 μg of the immunodominant hsp peptide (hsp-p), in PBS. At 12 weeks of age, mice were examined for insulitis and autoantigen reactive T-cells. At this age both indications are established in untreated NOD mice. Pancreatic tissue sections were stained by immunoperoxidase techniques for insulin and were counterstained with hematoxylin. Insulitis was scored in a blinded manner by examining 54 to 87 islets on 5 interrupted tissue sections from each pancreas. Proliferative splenic T-cell responses induced by various antigens were performed as described above in Example 4. Data in Table 8 are expressed as the average [^3 H]-thymidine label (cpm) incorporated in triplicate cultures.\n2. In a second set of experiments neonatal female NOD mice were injected intraperitoneally IFA with peptide 11, a mixture of peptides 34 and 35 plus IFA, or with IFA alone and at 12 weeks of age the mice were examined for insulitis and autoantigen reactive T-cells as in Example 6.1. Proliferative splenic T-cell responses induced by the various antigens were performed as in Example 4, and data in Table 8B are expressed as the average [^3 H]-thymidine label (cpm) incorporated in triplicate cultures.\n3. In a third set of experiments female NOD mice were intravenously injected at three weeks of age with peptide 11 (control), a mixture of peptides 34 and 35 plus IFA, or with HEL peptides and at 12 weeks of age the mice were examined for insulitis and autoantigen reactive T-cells as in Example 6.1. Proliferative splenic T-cell responses induced by the various antigens were performed as in Example 4, and data in Table 8C are expressed as the average [^3 H]-thymidine label (cpm) incorporated in triplicate cultures."}, "[4]": {"system": "spleen cells of treated female NOD mice", "assay": "Proliferative splenic T-cell responses to antigens after tolerance induction", "format": "in vivo", "conditions": "Table 8A: i.v. at 3 weeks, tested at 12 weeks"}, "[5]": {"target": "T1, 64 kD pancreatic polypeptide (Homo sapiens, UniProt Q05329)", "T1 construct": "antibodies which recognize specific polypeptides produced in human pancreatic islet cells; endogenous in cells; host or cells: human pancreatic islet cells from cadaveric pancreas, metabolically labelled with 35S-methionine", "T1 sequence (Q05329 whole entry)": "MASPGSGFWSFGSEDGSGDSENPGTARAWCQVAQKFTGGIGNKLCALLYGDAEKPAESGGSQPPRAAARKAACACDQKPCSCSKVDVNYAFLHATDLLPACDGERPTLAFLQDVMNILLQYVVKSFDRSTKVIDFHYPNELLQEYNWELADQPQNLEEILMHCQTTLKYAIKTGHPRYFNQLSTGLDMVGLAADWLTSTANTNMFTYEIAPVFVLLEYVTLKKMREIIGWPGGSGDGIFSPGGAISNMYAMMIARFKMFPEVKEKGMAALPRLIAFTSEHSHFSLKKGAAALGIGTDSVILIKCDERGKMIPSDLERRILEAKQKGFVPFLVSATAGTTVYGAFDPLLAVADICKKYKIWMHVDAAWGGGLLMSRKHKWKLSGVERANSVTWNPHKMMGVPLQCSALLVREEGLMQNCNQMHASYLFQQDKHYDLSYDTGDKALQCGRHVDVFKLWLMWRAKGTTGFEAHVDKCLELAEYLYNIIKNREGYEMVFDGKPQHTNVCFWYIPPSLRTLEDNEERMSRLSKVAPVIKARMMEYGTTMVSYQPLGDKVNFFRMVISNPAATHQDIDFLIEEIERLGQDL", "assay": "Prior absorption of patient sera, then immunoprecipitation of the 64 kD islet cell polypeptide", "format": "binding", "from_the_text": "4. Human Islet Cells. Human pancreatic islets were isolated from cadaveric pancreases and maintained in vitro as previously described (Ricordi, et al., Diabetes, 37:413-420, 1988). The islet cells were metabolically labeled with ^35 S methionine (Amersham, Arlington Heights, Ill.) in vitro (95% air/5%CO2).\n5. Islet Cell Extractions and Immunoprecipitations. Islet cells were extracted as previously described by Atkinson, et al. (Lancet, 335:1357-1360, 1990) with the following modifications. […] Following another incubation with protein A Sepharose CL-4B (1 h, 4° C.), the complexes were then washed 5 times with 50 mM Tris HCL (pH 7.4) with 0.1% SDS, 1.0% Triton X-114, and 2 mM EDTA, and then washed again one time in double distilled water. The protein A Sepharose CL-4B was then boiled in Laemmli sample buffer (Laemmli, Nature, 227:680-685, 1970), and the samples were subjected to SDS-PAGE and fluororadiography (Kodak, X-omat AR5) using Enhance (New England Nuclear). Alternatively, the autoradiographs were analyzed by a BETAGEN (Boston, Mass.) analyzer. Both 64 KA positive and negative sera were used in each assay, to serve as interassay controls. All fluororadiographs were analyzed and rated as positive or negative after comparison with the known interassay controls."}, "spleen cells of NOD mice": {"system": "spleen cells of NOD mice", "assay": "Proliferative recall response of spleen cells to β-cell antigens, by age", "format": "cell-based", "conditions": "female NOD mice, 10 μg/ml antigen or 7 μM peptide, 72 h culture (FIG. 8)", "description": "NOD (Taconic farms) and BALB/c mice (Jackson Laboratories) were kept under specific pathogen free conditions. The mice were sacrificed at the ages indicated and the spleen cells were tested directly ex vivo for their proliferative recall response to antigen. Single cell suspensions of spleen cells were plated at 1×10^6 cells per well in 96 well microtiter plates in 200 μl serum free HL-1 medium (Ventrex) that was supplemented with 2 mM glutamine with or without 10 μg/ml antigen (or 7 μM peptide) in triplicate cultures. During the last 16 h of the 72 h culture period, 1 μCi[^3 H]-thymidine was added per well. Incorporation of label was measured by liquid scintillation counting.\nBoth human GAD65 (Bu, et al., Proc. Natl. Acad. Sci., 89:2115-2119, 1992) and E. coli β-gal (control) were purified from recombinant bacteria on the basis of a hexahistidine tag which allows their rapid affinity purification by metal affinity chromatography (Hochuli, et al., Bio/Technology, 6:1321-1325, 1988). Bovine CPH was the generous gift of L. Fricker (Albert Einstein Col. Med.) and human insulin was purchased from Eli Lilly."}}}
{"molecule": "segment B: human GAD65 amino acid residues 224-398, translated in vitro, 35S labeled", "values": [{"measurement": "patients with antibodies reactive with the segment", "setting": "[1]", "value": 41, "unit": "%"}]}
{"molecule": "β-Gal.: E. coli β-galactosidase (control antigen) purified from recombinant bacteria by hexahistidine tag [reference compound]", "values": [{"measurement": "mice that developed IDDM by 27 weeks in age", "setting": "female NOD mice [2]; 25 ug ip in IFA at 8 weeks of age", "value": "6/10"}, {"measurement": "treated mice remaining disease free at 52 weeks of age", "setting": "female NOD mice [2]; 25 ug ip in IFA at 8 weeks, 10 mice per group", "value": 2}, {"measurement": "Insulitis Score", "setting": "female NOD mice [3]", "value": "2.6 ± 0.6"}, {"measurement": "Spleen Cell Proliferation (SI ± SEM) CPH", "setting": "[4]; recall antigen CPH", "value": "11.5 ± 0.9", "unit": "SI"}, {"measurement": "Spleen Cell Proliferation (SI ± SEM) GAD", "setting": "[4]; recall antigen GAD", "value": "15.4 ± 1.8", "unit": "SI"}, {"measurement": "Spleen Cell Proliferation (SI ± SEM) GAD Peptides #17", "setting": "[4]; recall antigen GAD peptide #17", "value": "5.1 ± 0.6", "unit": "SI"}, {"measurement": "Spleen Cell Proliferation (SI ± SEM) GAD Peptides #34", "setting": "[4]; recall antigen GAD peptide #34", "value": "5.1 ± 0.6", "unit": "SI"}, {"measurement": "Spleen Cell Proliferation (SI ± SEM) GAD Peptides #35", "setting": "[4]; recall antigen GAD peptide #35", "value": "4.0 ± 0.2", "unit": "SI"}, {"measurement": "Spleen Cell Proliferation (SI ± SEM) hsp Peptide", "setting": "[4]; recall antigen hsp peptide", "value": "6.6 ± 0.5", "unit": "SI"}, {"measurement": "Spleen Cell Proliferation (SI ± SEM) β-Gal", "setting": "[4]; recall antigen β-Gal", "value": "1.1 ± 0.1", "unit": "SI"}]}
{"molecule": "bacterially produced GAD65: GAD65 expressed in bacteria, used to absorb patient sera", "values": [{"measurement": "ability of the absorbed sera to recognize the 64 kD pancreatic polypeptide", "setting": "[5]", "value": "abolished"}]}
{"molecule": "insulin: human insulin purchased from Eli Lilly [reference compound]", "values": [{"measurement": "age at which the proliferative T-cell response to the antigen appeared", "setting": "spleen cells of NOD mice", "value": 12, "unit": "weeks"}]}
{"molecule": "CPH: bovine carboxypeptidase H, gift of L. Fricker [reference compound]", "values": [{"measurement": "age at which the proliferative T-cell response to the antigen appeared", "setting": "spleen cells of NOD mice", "value": "≤ 8", "unit": "weeks"}]}
{"molecule": "B1", "values": [{"measurement": "patients with antibodies reactive with the segment", "setting": "[1]", "value": 27, "unit": "%"}]}
{"molecule": "B2", "values": [{"measurement": "patients with antibodies reactive with the segment", "setting": "[1]", "value": "none"}]}
